Results as given in the NIST ThermoML archive (doi:10.1021/je700177n).
Numbers after ± are expanded uncertainties.

What was measured:
[1] = refractive index (Na D-line) (dimensionless); wn = mass fraction of the nth substance listed; conditions: 333.15 K, 101 kPa, Liquid
[2] = wn = mass fraction of the nth substance listed; conditions: 333.15 K, 101 kPa, Liquid

Q: Which refractive index ([1]; w1 = 0.1) does the source give for O=C[C@H](O)[C@@H](O)[C@H](O)[C@H](O)CO [D-glucose] + O here?
A: The refractive index was 1.341 ± 0.005.

Q: And the refractive index ([1]; w1 = 0.2)?
A: Its refractive index is 1.359 ± 0.005.

Q: What about the refractive index ([1]; w1 = 0.3) of the same compound?
A: Its refractive index is 1.375 ± 0.005.

Q: And the refractive index ([1]; w1 = 0.4)?
A: The refractive index was 1.395 ± 0.005.

Q: What about the refractive index ([1]; w1 = 0.5) of the same compound?
A: Its refractive index is 1.416 ± 0.005.

Q: And the refractive index ([1]; w1 = 0.6)?
A: The refractive index was 1.432 ± 0.005.

Q: What about the refractive index ([1]; w1 = 0.7) of the same compound?
A: The refractive index was 1.455 ± 0.005.

Q: What about the refractive index ([1]; w1 = 0.8) of the same compound?
A: The refractive index was 1.477 ± 0.005.

Q: What about the refractive index ([1]; w1 = 0.9) of the same compound?
A: Its refractive index is 1.506 ± 0.005.

Q: What about the mass density ([2]; w1 = 0.1) of the same compound?
A: The mass density was 1022 ± 2 kg/m3.

Q: And the viscosity ([2]; w1 = 0.1)?
A: The viscosity was 29.4 mPa·s.

Q: What about the mass density ([2]; w1 = 0.2) of the same compound?
A: The mass density was 1063 ± 3 kg/m3.

Q: What about the viscosity ([2]; w1 = 0.2) of the same compound?
A: The viscosity was 34.8 mPa·s.

Q: What about the mass density ([2]; w1 = 0.3) of the same compound?
A: Its mass density is 1109 ± 3 kg/m3.

Q: And the viscosity ([2]; w1 = 0.3)?
A: The viscosity was 43.8 mPa·s.

Q: And the mass density ([2]; w1 = 0.4)?
A: Its mass density is 1157 ± 4 kg/m3.

Q: And the viscosity ([2]; w1 = 0.4)?
A: Its viscosity is 63 mPa·s.

Q: And the mass density ([2]; w1 = 0.5)?
A: The mass density was 1207 ± 5 kg/m3.

Q: What about the viscosity ([2]; w1 = 0.5) of the same compound?
A: Its viscosity is 107.1 mPa·s.

Q: What about the mass density ([2]; w1 = 0.6) of the same compound?
A: The mass density was 1268 ± 6 kg/m3.

Q: What about the viscosity ([2]; w1 = 0.6) of the same compound?
A: The viscosity was 264.6 mPa·s.

Q: What about the mass density ([2]; w1 = 0.7) of the same compound?
A: The mass density was 1334 ± 7 kg/m3.

Q: What about the viscosity ([2]; w1 = 0.7) of the same compound?
A: The viscosity was 409.2 mPa·s.

Q: And the mass density ([2]; w1 = 0.8)?
A: The mass density was 1376 ± 8 kg/m3.

Q: What about the viscosity ([2]; w1 = 0.8) of the same compound?
A: The viscosity was 430.8 mPa·s.

Q: With O [water] + O=C[C@H](O)[C@@H](O)[C@H](O)[C@H](O)CO as the compound, how does the refractive index ([1]; w2 = 0) read?
A: The refractive index was 1.326 ± 0.005.
